# ChEMBL document CHEMBL5390242, “Design, Synthesis, and Antitumor Efficacy of Substituted 2-Amino[1,2,4]triazolopyrimidines and Related Heterocycles as Dual Inhibitors for Microtubule Polymerization and Janus Kinase 2” (J Med Chem, 2023)
# The source made the active and inactive calls. The rule behind the calls is not given here.
# What was measured:
# HeLa = assay: Antiproliferative activity against human HeLa cells assessed as cell growth inhibition incubated for 48 hrs by MTT assay; format: functional, cell-based
# A2780/Taxol = assay: Antiproliferative activity against human A2780T cells assessed as cell growth inhibition incubated for 48 hrs by MTT assay; format: functional, cell-based
# KP-4 = assay: Antiproliferative activity against human KP-4 cells assessed as cell growth inhibition incubated for 48 hrs by MTT assay; format: functional, cell-based; conditions: KP-4, 48 h
# BXPC-3 = assay: Antiproliferative activity against human BXPC-3 cells assessed as cell growth inhibition incubated for 48 hrs by MTT assay; format: functional, cell-based; conditions: BXPC-3, 48 h
# MCF7 = assay: cells; conditions: Homo sapiens, MCF7, 48 h
# Description: Antiproliferative activity against human MCF7 cells assessed as cell growth inhibition incubated for 48 hrs by MTT assay
# [1] = Resistance index, ratio of IC50 for antiproliferative activity against human HCT-8/VCR cells to IC50 for antiproliferative activity against human HCT-8 cells; format: functional
# [2] = Antiproliferative activity against human HCT-8/VCR cells assessed as cell growth inhibition incubated for 48 hrs by MTT assay; format: functional, cell-based
# HCT-8 = assay: Antiproliferative activity against human HCT-8 cells assessed as cell growth inhibition incubated for 48 hrs by MTT assay; format: functional, cell-based; conditions: HCT-8, 48 h
# [3] = target: Tubulin beta (Homo sapiens) (UniProt P68371+Q9H4B7+Q13509+P04350+Q3ZCM7+P07437+Q13885+Q9BVA1+Q9BUF5+A6NNZ2); assay: Binding affinity to beta-tubulin colchicine binding site in human A549 cells assessed as inhibition of EBI-beta-tubulin adduct band formation at 5 to 25 uM preincubated for 2 hrs followed by EBI addition measured after 1.5 hrs by EBI competition based Western blotting analysis; format: cell-based; conditions: dose 5-25 µM
# HT-29 = assay: Antiproliferative activity against human HT-29 cells assessed as cell growth inhibition incubated for 48 hrs by MTT assay; format: functional, cell-based; conditions: HT-29, 48 h
# CWR22R = assay: Cytotoxicity against human 22Rv1 cells assessed as cell growth inhibition incubated for 48 hrs by MTT assay; format: functional, cell-based; conditions: 22Rv1, 48 h
# A549 [4] = assay: Induction of apoptosis in human A549 cells assessed as necrotic cells at 50 nM incubated for 24 hrs by Annexin V-FITC/PI staining based flow cytometry (reference value: 0.67 %); format: functional
# A549 [5] = assay: Induction of apoptosis in human A549 cells assessed as late apoptotic cells at 50 nM incubated for 24 hrs by Annexin V-FITC/PI staining based flow cytometry (reference value: 1.72 %); format: functional
# COLO 205 = assay: Cytotoxicity against human COLO 205 cells assessed as cell growth inhibition incubated for 48 hrs by MTT assay; format: functional, cell-based; conditions: COLO 205, 48 h
# [6] = Cytotoxicity against human L02 cells assessed as cell growth inhibition incubated for 48 hrs by MTT assay; format: toxicity, cell-based
# A549 [7] = assay: Antiproliferative activity against human A549 cells assessed as cell growth inhibition incubated for 48 hrs by MTT assay; format: functional, cell-based; conditions: A549, 48 h
# HepG2 = assay: Cytotoxicity against human HepG2 cells assessed as cell growth inhibition incubated for 48 hrs by MTT assay; format: functional, cell-based; conditions: HepG2, 48 h
# [8] = Cytotoxicity against human HaCaT cells assessed as cell growth inhibition incubated for 48 hrs by MTT assay; format: toxicity, cell-based
# [9] = target: T1, Tyrosine-protein kinase JAK2 (Homo sapiens, UniProt O60674); assay: Inhibition of JAK2 (unknown origin) using Poly-(Glu,Tyr 4:1) peptide as substrate at 1 uM in presence of ATP by ADP-Glo reagent based assay relative to control
# T1 sequence (O60674 whole entry): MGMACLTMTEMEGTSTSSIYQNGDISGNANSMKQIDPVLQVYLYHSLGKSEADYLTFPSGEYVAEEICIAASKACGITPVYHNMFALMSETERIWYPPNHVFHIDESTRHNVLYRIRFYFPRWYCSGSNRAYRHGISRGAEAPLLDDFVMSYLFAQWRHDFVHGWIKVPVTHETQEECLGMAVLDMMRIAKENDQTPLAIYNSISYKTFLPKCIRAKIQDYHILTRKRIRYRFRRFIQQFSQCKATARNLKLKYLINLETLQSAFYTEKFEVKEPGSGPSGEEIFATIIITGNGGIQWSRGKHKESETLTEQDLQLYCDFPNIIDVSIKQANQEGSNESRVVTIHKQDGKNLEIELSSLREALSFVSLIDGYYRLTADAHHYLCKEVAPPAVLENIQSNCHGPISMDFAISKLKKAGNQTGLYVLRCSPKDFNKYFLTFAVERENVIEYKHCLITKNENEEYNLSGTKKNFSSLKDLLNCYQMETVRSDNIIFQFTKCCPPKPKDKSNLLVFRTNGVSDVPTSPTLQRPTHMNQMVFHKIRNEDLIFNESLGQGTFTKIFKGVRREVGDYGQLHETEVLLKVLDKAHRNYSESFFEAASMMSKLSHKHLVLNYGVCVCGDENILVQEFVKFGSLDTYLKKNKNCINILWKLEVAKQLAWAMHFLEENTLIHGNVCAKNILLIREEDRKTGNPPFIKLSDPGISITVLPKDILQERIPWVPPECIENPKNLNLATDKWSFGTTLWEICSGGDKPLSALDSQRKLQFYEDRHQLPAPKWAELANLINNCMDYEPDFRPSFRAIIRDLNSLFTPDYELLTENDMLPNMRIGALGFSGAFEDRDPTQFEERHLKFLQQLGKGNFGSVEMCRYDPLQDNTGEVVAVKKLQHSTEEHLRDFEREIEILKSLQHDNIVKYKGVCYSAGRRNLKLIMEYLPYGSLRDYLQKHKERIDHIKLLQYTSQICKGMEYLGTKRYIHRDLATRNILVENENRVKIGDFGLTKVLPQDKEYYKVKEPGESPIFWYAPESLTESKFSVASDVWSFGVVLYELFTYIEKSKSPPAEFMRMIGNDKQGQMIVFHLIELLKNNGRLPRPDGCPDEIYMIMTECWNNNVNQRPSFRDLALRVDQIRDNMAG
# A549 [10] = assay: Induction of apoptosis in human A549 cells assessed as viable cells at 50 nM incubated for 24 hrs by Annexin V-FITC/PI staining based flow cytometry (reference value: 93 %); format: functional; conditions: read-out: Activity
# [11] = Antiproliferative activity against Chinese hamster CHO cells assessed as cell growth inhibition incubated for 48 hrs by MTT assay; format: toxicity, cell-based, Cricetulus griseus
# [12] = Antiproliferative activity against Chinese hamster CHO-K1 cells assessed as cell growth inhibition incubated for 48 hrs by MTT assay; format: toxicity, cell-based, Cricetulus griseus
# A549 [13] = assay: Induction of mitochondrial membrane potential loss in human A549 cells by measuring red fluorescence at 50 nM incubated for 16 hrs by JC-1 staining based flow cytometry analysis (reference value: 99.3 %); format: functional
# A549 [14] = assay: Induction of mitochondrial membrane potential loss in human A549 cells by measuring green fluorescence at 50 nM incubated for 16 hrs by JC-1 staining based flow cytometry analysis (reference value: 0.7 %); format: functional
# [15] = Cytotoxicity against human ARPE-19 cells assessed as cell growth inhibition incubated for 48 hrs by MTT assay; format: toxicity, cell-based
# A549 [16] = assay: Induction of apoptosis in human A549 cells assessed as early apoptotic cells at 50 nM incubated for 24 hrs by Annexin V-FITC/PI staining based flow cytometry (reference value: 4.61 %); format: functional
# PC-3 = assay: Antiproliferative activity against human PC-3 cells assessed as cell growth inhibition incubated for 48 hrs by MTT assay; format: functional, cell-based; conditions: PC-3, 48 h
# [17] = Cmax in CD-1 mouse at 13 mg/kg,ip measured upto 24 hrs by HPLC-MS/MS analysis; format: ADME, organism-based; design: time < 24 hrs, dose 13 mg/kg, route ip; conditions: in vivo
# [18] = Tmax in CD-1 mouse at 13 mg/kg,ip measured upto 24 hrs by HPLC-MS/MS analysis; format: ADME, organism-based; conditions: in vivo
# [19] = Acute toxicity in C57BL/6 mouse assessed as maximum tolerated dose administered intravenously for 5 consecutive days; conditions: in vivo, route iv
# [20] = AUC (0 to t) in CD-1 mouse at 13 mg/kg,ip measured upto 24 hrs by HPLC-MS/MS analysis; format: ADME, organism-based; design: time < 24 hrs, dose 13 mg/kg, route ip; conditions: in vivo
# A549 [21] = assay: Antitumor activity against human A549 cells xenografted in Balb/c mouse assessed as increase in tumor necrotic cells at 50 mg/kg,ip administration measured after 31 days by Hematoxylin-eosin staining based microscopy; format: functional, organism-based; conditions: time 31.0 day
# A549 [22] = assay: Antitumor activity against human A549 cells xenografted in Balb/c mouse assessed as tumor size at 50 mg/kg,ip administration measured after 31 days; format: functional; conditions: time 31 day
# A549 [23] = assay: Antitumor activity against human A549 cells xenografted in Balb/c mouse assessed as reduction in tumor weight at 50 mg/kg,ip administration measured after 31 days; format: functional; design: scale not given: the % may be the effect or the level left; conditions: time 31 day
# [24] = MRT (0 to t) in CD-1 mouse at 13 mg/kg,ip measured upto 24 hrs by HPLC-MS/MS analysis; format: ADME, organism-based; conditions: in vivo
# [25] = Half life in CD-1 mouse at 13 mg/kg,ip measured upto 24 hrs by HPLC-MS/MS analysis; format: ADME, organism-based; conditions: in vivo
# [26] = Toxicity in Balb/c mouse xenografted with human A549 cells assessed as change in body weight at 50 mg/kg,ip administration measured after 31 days; format: organism-based; conditions: in vivo, 744 h, time 31 day
# [27] = MRT (0 to infinity) in CD-1 mouse at 13 mg/kg,ip measured upto 24 hrs by HPLC-MS/MS analysis; format: ADME, organism-based; conditions: in vivo
# [28] = AUC (0 to infinity) in CD-1 mouse at 13 mg/kg,ip measured upto 24 hrs by HPLC-MS/MS analysis; format: ADME, organism-based; design: time < 24 hrs, dose 13 mg/kg, route ip; conditions: in vivo
# [29] = Metabolic stability in mouse liver microsomes assessed as half life incubated for 10 mins in presence of NADPH by LC-MS/MS analysis; format: ADME, Microsome
# A549 [30] = assay: Induction of apoptosis in human A549 cells assessed as late apoptotic cells at 500 nM incubated for 24 hrs by Annexin V-FITC/PI staining based flow cytometry (reference value: 1.72 %); format: functional
# A549 [31] = assay: Induction of apoptosis in human A549 cells assessed as early apoptotic cells at 500 nM incubated for 24 hrs by Annexin V-FITC/PI staining based flow cytometry (reference value: 4.61 %); format: functional
# A549 [32] = assay: Induction of mitochondrial membrane potential loss in human A549 cells by measuring red fluorescence at 500 nM incubated for 16 hrs by JC-1 staining based flow cytometry analysis (reference value: 99.3 %); format: functional
# [33] = Antiproliferative activity against human A549/DDP cells assessed as cell growth inhibition incubated for 48 hrs by MTT assay; format: functional, cell-based
# A549 [34] = assay: Induction of apoptosis in human A549 cells assessed as viable cells at 500 nM incubated for 24 hrs by Annexin V-FITC/PI staining based flow cytometry (reference value: 93 %); format: functional; conditions: read-out: Activity
# [35] = target: Tyrosine-protein kinase JAK1 (Homo sapiens, UniProt P23458); assay: Inhibition of JAK1 (unknown origin) using Poly-(Glu,Tyr 4:1) peptide as substrate in presence of ATP by ADP-Glo reagent based assay
# Tyrosine-protein kinase JAK1, sequence (P23458 whole entry): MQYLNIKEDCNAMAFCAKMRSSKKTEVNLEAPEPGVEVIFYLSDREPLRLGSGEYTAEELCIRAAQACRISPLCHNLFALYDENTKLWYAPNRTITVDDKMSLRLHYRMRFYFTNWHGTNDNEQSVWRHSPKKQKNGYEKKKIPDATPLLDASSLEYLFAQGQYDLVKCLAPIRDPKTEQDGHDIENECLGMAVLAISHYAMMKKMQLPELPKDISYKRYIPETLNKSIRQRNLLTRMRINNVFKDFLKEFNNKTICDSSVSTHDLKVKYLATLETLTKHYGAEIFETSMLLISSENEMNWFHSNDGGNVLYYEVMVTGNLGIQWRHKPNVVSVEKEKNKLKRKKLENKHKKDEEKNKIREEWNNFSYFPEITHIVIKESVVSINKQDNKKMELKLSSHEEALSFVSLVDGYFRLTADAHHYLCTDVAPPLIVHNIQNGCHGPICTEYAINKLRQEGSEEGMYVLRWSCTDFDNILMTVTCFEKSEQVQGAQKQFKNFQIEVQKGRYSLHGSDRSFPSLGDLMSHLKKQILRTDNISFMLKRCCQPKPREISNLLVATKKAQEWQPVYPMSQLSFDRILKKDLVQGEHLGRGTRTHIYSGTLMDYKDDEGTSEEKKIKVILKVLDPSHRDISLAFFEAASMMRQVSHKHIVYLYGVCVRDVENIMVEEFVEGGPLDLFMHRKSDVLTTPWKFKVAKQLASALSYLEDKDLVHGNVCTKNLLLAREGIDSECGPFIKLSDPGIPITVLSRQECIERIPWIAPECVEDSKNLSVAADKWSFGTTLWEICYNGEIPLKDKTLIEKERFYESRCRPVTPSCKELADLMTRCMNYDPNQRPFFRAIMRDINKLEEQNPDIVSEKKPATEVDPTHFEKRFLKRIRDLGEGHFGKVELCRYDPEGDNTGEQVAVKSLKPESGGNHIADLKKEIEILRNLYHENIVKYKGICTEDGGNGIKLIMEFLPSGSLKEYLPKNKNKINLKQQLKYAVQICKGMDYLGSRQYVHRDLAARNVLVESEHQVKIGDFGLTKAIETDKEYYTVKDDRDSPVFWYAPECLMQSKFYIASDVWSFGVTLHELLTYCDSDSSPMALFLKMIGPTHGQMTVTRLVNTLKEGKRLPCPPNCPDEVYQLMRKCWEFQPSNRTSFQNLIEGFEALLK
# NCI/ADR-RES = assay: cells; conditions: Homo sapiens, 48 h
# Description: Antiproliferative activity against human MCF7ADR cells assessed as cell growth inhibition incubated for 48 hrs by MTT assay
# [36] = target: T1, Tyrosine-protein kinase JAK2; assay: Inhibition of JAK2 (unknown origin) using Poly-(Glu,Tyr 4:1) peptide as substrate in presence of ATP by ADP-Glo reagent based assay
# A2780 = assay: Antiproliferative activity against human A2780 cells assessed as cell growth inhibition incubated for 48 hrs by MTT assay; format: functional, cell-based; conditions: A2780, 48 h
# A549 [37] = assay: Induction of apoptosis in human A549 cells assessed as necrotic cells at 500 nM incubated for 24 hrs by Annexin V-FITC/PI staining based flow cytometry (reference value: 0.67 %); format: functional
# A549 [38] = assay: Induction of mitochondrial membrane potential loss in human A549 cells by measuring green fluorescence at 500 nM incubated for 16 hrs by JC-1 staining based flow cytometry analysis (reference value: 0.7 %); format: functional
SMILES,IC50 (HeLa),IC50 (A2780/Taxol),IC50 (KP-4),IC50 (BXPC-3),IC50 (MCF7),IC50 [2],IC50 (HCT-8),IC50 (HT-29),IC50 (CWR22R),IC50 (COLO 205),IC50 at 48 h [6],IC50 (A549 [7]),IC50 (HepG2),IC50 at 48 h [8],inhibition [9],IC50 at 48 h [11],IC50 at 48 h [12],IC50 at 48 h [15],IC50 (PC-3),further results
CC(=O)O[C@H]1C(=O)[C@@]2(C)[C@H]([C@H](OC(=O)c3ccccc3)[C@]3(O)C[C@H](OC(=O)[C@H](O)[C@@H](NC(=O)c4ccccc4)c4ccccc4)C(C)=C1C3(C)C)[C@]1(OC(C)=O)CO[C@@H]1C[C@@H]2O [PACLITAXEL],7 nM,319 nM,7 nM,11 nM,7 nM,,,,,,,,,,,,,,,
CC[C@]1(O)C[C@H]2CN(CCc3c([nH]c4ccccc34)[C@@](C(=O)OC)(c3cc4c(cc3OC)N(C=O)[C@H]3[C@@](O)(C(=O)OC)[C@H](OC(C)=O)[C@]5(CC)C=CCN6CC[C@]43[C@@H]65)C2)C1 [VINCRISTINE],,,,,,2920 nM,173 nM,,,,,,,,,,,,,Ratio IC50 [1]: 16.9; Activity [3]: inactive
COc1cc2c(c(OC)c1OC)-c1ccc(OC)c(=O)cc1[C@@H](NC(C)=O)CC2 [COLCHICINE],,,,41 nM,46 nM,,,31 nM,18 nM,12.8 nM,269 nM,64 nM,75 nM,9.3 nM,5.7%,697 nM,9200 nM,21.8 nM,79 nM,Activity (A549 [4]): 3.6%; Activity (A549 [5]): 24.1%; viability at 0.05 µM (A549 [10]): 57%; Activity (A549 [13]): 93.9%; Activity (A549 [14]): 0.1%; Activity (A549 [16]): 15.3%
COc1cc(-c2nccc3nc(Nc4cccc5c4ccn5P(=O)([O-])[O-])nn23)cc(OC)c1OC.[Na+].[Na+],11 nM,,42 nM,9 nM,48 nM,,,,,,,12 nM,,,,,,,,Cmax [17]: 334 ng/mL; Tmax [18]: 6 min; MTD at 5 days [19]: 100 mg/kg; AUC(0-t) at 24 h [20]: 850 ng·h/mL; Activity (A549 [21]): Active; Activity (A549 [22]): 204.6 mm3; Activity (A549 [23]): 91%; MRT last at 24 h [24]: 1.8 h; half-life [25]: 1.8 h; Activity [26]: Non-Toxic; MRT inf [27]: 2.4 h; AUC(0-inf) [28]: 908 ng·h/mL
CN1CCN(c2cccc(Nc3nc4c(-c5ccc(S(C)(=O)=O)cc5)cccn4n3)c2)CC1,1260 nM,394 nM,372 nM,730 nM,1230 nM,5780 nM,1140 nM,961 nM,5790 nM,1550 nM,388 nM,358 nM,2040 nM,2830 nM,99%,172 nM,216 nM,4930 nM,15100 nM,half-life [29]: 0.218 h; Activity (A549 [30]): 16.6%; Activity (A549 [31]): 14.9%; Activity (A549 [32]): 96.5%; IC50 [33]: 1530 nM; viability at 0.5 µM (A549 [34]): 65.7%; IC50 [35]: 12 nM; IC50 (NCI/ADR-RES): 3530 nM; IC50 [36]: 6 nM; IC50 (A2780): 289 nM; Activity (A549 [37]): 2.8%; Activity (A549 [38]): 3.5%
